From ChEMBL document CHEMBL4507256 (2021)

Key:
[1] = molecular target: Dual specificity mitogen-activated protein kinase kinase 6 (Homo sapiens) (UniProt P52564); settings: Compound concentration 1000.0 nM
[2] = molecular target: Gastrin/cholecystokinin type B receptor (Homo sapiens) (UniProt P32239); assay: CCKB (h) CEREP ligand profiling; settings: Compound concentration 10.0 uM
[3] = molecular target: Endothelin-1 receptor (Homo sapiens) (UniProt P25101); assay: ETA (h) CEREP ligand profiling; settings: Compound concentration 10.0 uM
[4] = molecular target: Neuromedin-K receptor (Homo sapiens) (UniProt P29371); assay: NK3 (h) CEREP ligand profiling; settings: Compound concentration 10.0 uM
[5] = molecular target: Endothelin receptor type B (Homo sapiens) (UniProt P24530); assay: ETB (h) CEREP ligand profiling; settings: Compound concentration 10.0 uM
[6] = molecular target: Muscarinic acetylcholine receptor M3 (Homo sapiens) (UniProt P20309); assay: M3 (h) CEREP ligand profiling; settings: Compound concentration 10.0 uM
[7] = molecular target: T1, Muscarinic acetylcholine receptor M5 (Homo sapiens) (UniProt P08912); assay: M5 (h) CEREP ligand profiling; settings: Compound concentration 10.0 uM
T1 sequence (whole entry): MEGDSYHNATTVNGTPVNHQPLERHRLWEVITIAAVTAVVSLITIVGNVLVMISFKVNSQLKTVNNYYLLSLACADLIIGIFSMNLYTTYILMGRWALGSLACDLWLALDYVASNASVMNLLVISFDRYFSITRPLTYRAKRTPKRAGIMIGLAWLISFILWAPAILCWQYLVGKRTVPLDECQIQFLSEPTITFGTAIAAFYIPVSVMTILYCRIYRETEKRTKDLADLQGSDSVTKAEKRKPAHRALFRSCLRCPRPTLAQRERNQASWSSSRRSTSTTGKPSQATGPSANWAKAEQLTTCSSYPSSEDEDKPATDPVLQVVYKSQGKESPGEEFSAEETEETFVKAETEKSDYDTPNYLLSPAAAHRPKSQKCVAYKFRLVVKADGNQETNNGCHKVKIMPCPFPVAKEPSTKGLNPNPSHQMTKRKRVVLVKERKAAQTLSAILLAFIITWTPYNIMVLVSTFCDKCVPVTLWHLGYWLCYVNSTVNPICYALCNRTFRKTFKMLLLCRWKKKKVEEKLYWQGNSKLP

[8] = molecular target: Sodium-dependent dopamine transporter (Homo sapiens) (UniProt Q01959); assay: DA transporter(h) CEREP ligand profiling; settings: Compound concentration 10.0 uM
[9] = molecular target: Kappa-type opioid receptor (Cavia porcellus) (UniProt P41144); assay: kappa (guinea pig) CEREP ligand profiling; settings: Compound concentration 10.0 uM
Kappa-type opioid receptor (Cavia porcellus), sequence (P41144 whole entry, looked up): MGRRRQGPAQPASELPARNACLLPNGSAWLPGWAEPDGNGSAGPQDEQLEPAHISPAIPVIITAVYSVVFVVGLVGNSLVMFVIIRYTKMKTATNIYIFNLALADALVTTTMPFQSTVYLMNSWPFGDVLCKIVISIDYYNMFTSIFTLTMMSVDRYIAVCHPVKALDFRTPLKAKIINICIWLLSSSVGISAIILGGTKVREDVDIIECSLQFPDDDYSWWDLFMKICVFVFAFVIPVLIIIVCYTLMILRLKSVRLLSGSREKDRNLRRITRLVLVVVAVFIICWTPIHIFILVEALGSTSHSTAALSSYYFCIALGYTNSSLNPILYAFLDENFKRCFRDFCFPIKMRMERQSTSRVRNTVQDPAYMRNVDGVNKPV

Muscarinic acetylcholine receptor M3 (Homo sapiens), sequence (P20309 whole entry, looked up): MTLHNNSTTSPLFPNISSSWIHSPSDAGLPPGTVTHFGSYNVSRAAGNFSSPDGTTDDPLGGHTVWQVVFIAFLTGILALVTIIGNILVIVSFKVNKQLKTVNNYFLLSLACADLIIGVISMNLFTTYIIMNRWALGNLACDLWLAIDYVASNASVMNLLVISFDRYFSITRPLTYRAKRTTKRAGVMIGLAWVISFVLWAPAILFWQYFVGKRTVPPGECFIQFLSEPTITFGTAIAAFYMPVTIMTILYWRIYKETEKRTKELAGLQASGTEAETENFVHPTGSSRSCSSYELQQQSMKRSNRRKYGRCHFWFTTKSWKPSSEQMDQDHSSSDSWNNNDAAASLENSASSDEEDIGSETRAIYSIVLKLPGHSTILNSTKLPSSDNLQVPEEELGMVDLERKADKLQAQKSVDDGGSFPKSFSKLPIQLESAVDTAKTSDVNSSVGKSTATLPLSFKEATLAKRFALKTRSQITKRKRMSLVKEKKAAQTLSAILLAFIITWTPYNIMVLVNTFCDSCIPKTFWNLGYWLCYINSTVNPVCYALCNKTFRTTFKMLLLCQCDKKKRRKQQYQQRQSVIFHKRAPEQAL
Endothelin-1 receptor (Homo sapiens), sequence (P25101 whole entry): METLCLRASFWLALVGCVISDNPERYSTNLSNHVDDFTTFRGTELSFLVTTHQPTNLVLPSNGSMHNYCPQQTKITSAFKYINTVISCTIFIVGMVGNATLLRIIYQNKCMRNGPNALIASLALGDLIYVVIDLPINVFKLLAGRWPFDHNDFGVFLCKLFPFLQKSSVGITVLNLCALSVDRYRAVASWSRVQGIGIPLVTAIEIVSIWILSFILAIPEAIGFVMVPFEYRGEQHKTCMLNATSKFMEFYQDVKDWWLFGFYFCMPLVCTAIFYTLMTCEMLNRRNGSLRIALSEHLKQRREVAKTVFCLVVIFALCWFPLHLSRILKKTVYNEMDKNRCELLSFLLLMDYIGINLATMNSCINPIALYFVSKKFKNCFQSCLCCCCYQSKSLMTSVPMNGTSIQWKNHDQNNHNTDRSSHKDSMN
Dual specificity mitogen-activated protein kinase kinase 6 (Homo sapiens), sequence (P52564 whole entry): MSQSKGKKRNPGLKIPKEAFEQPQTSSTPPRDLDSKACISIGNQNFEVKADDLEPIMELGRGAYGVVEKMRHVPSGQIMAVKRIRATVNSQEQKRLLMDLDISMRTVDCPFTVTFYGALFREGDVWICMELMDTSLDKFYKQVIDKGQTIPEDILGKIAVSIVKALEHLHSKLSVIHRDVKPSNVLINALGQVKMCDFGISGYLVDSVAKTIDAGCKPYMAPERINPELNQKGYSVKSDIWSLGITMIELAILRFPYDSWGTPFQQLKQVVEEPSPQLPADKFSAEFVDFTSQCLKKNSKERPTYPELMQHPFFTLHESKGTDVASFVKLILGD
Endothelin receptor type B (Homo sapiens), sequence (P24530 whole entry): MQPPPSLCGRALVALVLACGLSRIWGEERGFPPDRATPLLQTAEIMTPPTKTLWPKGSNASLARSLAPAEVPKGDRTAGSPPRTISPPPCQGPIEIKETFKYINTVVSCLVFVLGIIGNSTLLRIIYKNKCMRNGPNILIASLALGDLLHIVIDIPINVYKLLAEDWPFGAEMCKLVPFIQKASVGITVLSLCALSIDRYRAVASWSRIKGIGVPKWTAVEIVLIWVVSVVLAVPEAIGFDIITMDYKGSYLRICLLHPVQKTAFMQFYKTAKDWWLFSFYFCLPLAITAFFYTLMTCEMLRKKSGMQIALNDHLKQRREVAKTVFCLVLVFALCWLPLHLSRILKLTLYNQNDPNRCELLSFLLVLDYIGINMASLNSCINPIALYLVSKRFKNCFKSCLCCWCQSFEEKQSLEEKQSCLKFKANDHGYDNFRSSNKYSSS
Sodium-dependent dopamine transporter (Homo sapiens), sequence (Q01959 whole entry): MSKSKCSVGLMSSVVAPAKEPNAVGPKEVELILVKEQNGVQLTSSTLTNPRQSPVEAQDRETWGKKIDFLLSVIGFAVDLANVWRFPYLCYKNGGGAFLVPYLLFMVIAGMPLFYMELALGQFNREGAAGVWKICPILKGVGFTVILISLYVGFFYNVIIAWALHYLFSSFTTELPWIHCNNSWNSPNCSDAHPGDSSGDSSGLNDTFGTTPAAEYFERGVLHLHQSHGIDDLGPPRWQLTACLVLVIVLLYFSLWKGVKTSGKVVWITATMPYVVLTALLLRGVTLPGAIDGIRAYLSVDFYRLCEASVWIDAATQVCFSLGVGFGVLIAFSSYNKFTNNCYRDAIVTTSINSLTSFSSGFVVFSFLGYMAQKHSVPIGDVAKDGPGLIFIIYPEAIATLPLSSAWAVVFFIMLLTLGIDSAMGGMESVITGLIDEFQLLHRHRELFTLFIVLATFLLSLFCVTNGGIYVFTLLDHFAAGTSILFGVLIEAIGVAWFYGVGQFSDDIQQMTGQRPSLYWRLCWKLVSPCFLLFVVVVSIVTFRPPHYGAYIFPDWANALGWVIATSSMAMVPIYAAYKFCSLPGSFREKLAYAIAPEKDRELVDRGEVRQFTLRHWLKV
Gastrin/cholecystokinin type B receptor (Homo sapiens), sequence (P32239 whole entry): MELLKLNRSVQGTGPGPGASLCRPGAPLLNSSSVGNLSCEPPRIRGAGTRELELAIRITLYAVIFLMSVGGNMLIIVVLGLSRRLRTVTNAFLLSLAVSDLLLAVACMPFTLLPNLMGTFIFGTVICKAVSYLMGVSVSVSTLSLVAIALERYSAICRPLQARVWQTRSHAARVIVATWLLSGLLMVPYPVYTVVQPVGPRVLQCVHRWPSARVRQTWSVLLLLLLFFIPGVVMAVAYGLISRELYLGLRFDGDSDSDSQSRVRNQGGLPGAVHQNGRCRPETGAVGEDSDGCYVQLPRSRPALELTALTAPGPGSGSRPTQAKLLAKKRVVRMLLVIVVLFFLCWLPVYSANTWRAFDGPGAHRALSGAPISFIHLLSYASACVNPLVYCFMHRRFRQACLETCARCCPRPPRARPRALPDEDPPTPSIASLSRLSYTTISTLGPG
Neuromedin-K receptor (Homo sapiens), sequence (P29371 whole entry): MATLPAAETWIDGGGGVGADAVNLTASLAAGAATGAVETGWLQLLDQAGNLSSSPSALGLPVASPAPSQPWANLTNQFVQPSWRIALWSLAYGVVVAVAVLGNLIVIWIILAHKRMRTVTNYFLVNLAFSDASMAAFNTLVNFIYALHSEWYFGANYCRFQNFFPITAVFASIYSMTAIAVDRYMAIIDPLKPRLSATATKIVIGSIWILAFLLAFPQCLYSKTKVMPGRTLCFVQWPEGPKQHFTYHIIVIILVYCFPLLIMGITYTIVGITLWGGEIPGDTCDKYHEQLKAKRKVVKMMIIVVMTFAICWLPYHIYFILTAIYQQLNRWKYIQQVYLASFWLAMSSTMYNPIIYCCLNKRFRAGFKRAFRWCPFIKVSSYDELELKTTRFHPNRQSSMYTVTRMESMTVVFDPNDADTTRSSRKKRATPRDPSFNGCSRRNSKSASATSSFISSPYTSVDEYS

CCC(=N\O)/C(C)=C/c1ccc(F)c(C)c1 [A-226]
inactive: residual activity [1] 100%

CCC(=N\O)/C(C)=C/c1ccc(F)cc1 [A-079]
inactive: inhibition [2] 7% | inhibition [3] 5% | inhibition [4] 23% | inhibition [5] 5% | inhibition [6] 6% | inhibition [7] -4% | inhibition [8] 43% | inhibition [9] -4%
